Reference: US10788496B2, “MEK1 mutation conferring resistance to RAF and MEK inhibitors” (Dana-Farber Cancer Institute, Inc., priority 2010, dated 2020)

How the values were obtained:
[1] = tested on: A375 cells expressing the MEK1 C121S mutation; assay: Growth inhibition of A375 melanoma cells transfected with MEK1 C121S mutant; format: cell-based; conditions: for resistance of cells to the inhibitor (in words): A375 cells expressing MEK1 C121S, growth inhibition; for fold greater GI-50 value of MEK1 C121S cells: versus wild-type A375 cells or A375 cells expressing MEK-WT (for AZD6244 also MEK-DD)
Excerpt: FIGS. 1A and 1B are graphs showing the percent growth inhibition of A375 melanoma cells treated with increasing concentrations (in μM) of either the BRAF inhibitor PLX4720 (FIG. 1A) or the MEK1 inhibitor AZD6244 (FIG. 1B), wherein the A375 cells were either untransfected (A375), transfected with wild-type MEK1 (MEK-WT), transfected with the MEK1 C121S mutant (MEK-C121S) or transfected with a constitutively active MEK variant (MEK-DD).
It has previously been shown that mutations proximal to the C-helix of MEK1 can confer resistance to BRAF inhibition by PLX4032 by upregulating intrinsic MEK1 kinase activity (Emery, C. M. et al., (2009) Proc. Natl. Acad. Sci. USA 106:20411-20416). Therefore, it seemed plausible that the MEK1 C121 mutation, which is also located proximal to the C-helix, might have caused resistance to PLX4032 in the patient's recurrent tumor. To test this, the C121S was introduced mutation into the sequence of wild-type MEK1 and the mutant cDNA was expressed in the A375 melanoma cell line, which harbors a BRAF V600E mutation. To introduce the […] mutation into the wild-type MEK1 sequence, MEK1 site-directed mutagenesis was performed as previously described (Emery, C. M. et al., (2009) Proc. Natl. Acad. Sci. USA […]). Briefly, MEK1 cDNA was amplified by PCR and site-directed mutagenesis was conducted using Quick-Change II (Stratagene) as per the manufacturer's instructions. As controls, the wild-type MEK1 sequence or a constitutively active variant of MEK1, referred to as MEK1-DD, was expressed in the A375 melanoma cells.
To examine the effect of the MEK1 C121S mutation on responsiveness of the A375 melanoma cells to inhibitors, A375 cells (either untransfected cells, or cells transfected with either the wild-type MEK1, the C121S mutant MEK1, or the constitutively active variant MEK1-DD) were treated with increasing amounts of either the BRAF inhibitor PLX4720 (purchased from Symansis, Inc.), which is a compound closely related to PLX4032, or the MEK1 inhibitor AZD6244 (purchased from Selleck Chemical Co., Ltd.). The results are shown in the graphs of FIGS. 1A (PLX4720 treatment) and 1B (AZD6244 treatment).

[2] = tested on: MEK; conditions: cited from earlier work
[3] = tested on: human colon cancer xenograft; conditions: cited from earlier work
[4] = tested on: metastatic melanoma with BRAF V600E mutation; assay: Case of a patient with BRAF V600E metastatic melanoma treated with PLX4032 in a clinical trial; format: in vivo, human; conditions: single patient
Description: The patient was a person who was diagnosed with metastatic melanoma in February 2009. […] They were treated with several therapeutic regimens with minimal clinical response. By October 2009, the patient had developed numerous subcutaneous metastatic deposits.
In late February 2010, after 4 months of therapy with PLX4032, the patient rapidly developed new subcutaneous nodules all over their body and PLX4032 was stopped. At this point, they provided written informed consent and a percutaneous core biopsy of a recurrent subcutaneous nodule on the chest was obtained. In order to determine possible mechanisms of resistance to PLX4032 in this tumor, the exons from 138 cancer genes from this sample were sequenced using massively parallel sequencing. The patient continued to have rapid progression of their disease and died on hospice in March 2010.

[5] = tested on: melanoma with BRAF V600E mutations; conditions: cited from earlier work

CCCS(=O)(=O)Nc1ccc(F)c(C(=O)c2c[nH]c3ncc(Cl)cc23)c1F [PLX4720]
resistance of cells to the inhibitor (in words) [1]: strongly resistant
fold greater GI-50 value of MEK1 C121S cells [1]: 100 fold

Cn1cnc2c(F)c(Nc3ccc(Br)cc3Cl)c(C(=O)NOCCO)cc21 [AZD6244]
resistance of cells to the inhibitor (in words) [1]: strongly resistant
fold greater GI-50 value of MEK1 C121S cells [1]: ~1000 fold

O=C(NOCC1CC1)c1ccc(F)c(F)c1Nc1ccc(I)cc1Cl [CI-1040]
MEK inhibition in cell-based assays (in words) [2]: inhibited MEK
effect on xenograft growth (in words) [3]: reduced human colon cancer xenograft growth

CCCS(=O)(=O)Nc1ccc(F)c(C(=O)c2c[nH]c3ncc(-c4ccc(Cl)cc4)cc23)c1F [PLX4032]
duration of therapy until new subcutaneous nodules developed (relapse) [4]: 4 months
tumor response (in words) ([4]; after 15 weeks of therapy): near complete regression of all visible tumor nodules
time to visible partial response ([4]; from starting PLX4032): ≤ 2 weeks
patients with at least 30% tumor response by RECIST criteria ([5]; Phase I, 19 of 27 patients, oral): 70%
average time to relapse (resistance) ([5]; patients treated with PLX4032): 9 months
